The text below walks through data of patent US20110183978A1, “Phenylpyri(mi)dinylazoles” (Bayer CropScience AG, priority 2009, published 2011).

In one series the test system is Alternaria solani. Put plainly: Example M: in vivo test on Alternaria solani (leaf blotch disease/tomato/protective). The note with it: 168 h, tomato, protective, 500 ppm active substance, assessed 7 days after inoculation, read-out: % Wirkungsgrad (activity level). Put shortly:
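Alternaria solani infection on tomato scored 7 days post-inoculation. Before inoculation, young plants received a protective spray at the stated application dose; formulation was compound mixed with N,N-dimethylformamide and emulsifier, water-diluted.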

The subject of another series is Fusarium proliferatum. Put plainly: Example I: production of fumonisin FB1 by Fusarium proliferatum (microtitre plates). The note with it: 120 h. The format is cell-based.
The next series concerns Fusarium graminearum. Nature of the series: microbe, parasite or virus in culture. The format is cell-based.
The subject of another series is Sphaerotheca fuliginea. Put plainly: Example L: in vivo test on Sphaerotheca fuliginea (powdery mildew on cucumber/protective). The note with it: Podosphaera fuliginea, 168 h, cucumber, protective, assessment 7 days after inoculation, read-out: % Wirkungsgrad. On the procedure:
Solvent: 49 parts by weight N,N-dimethylformamide Emulsifier: 1 part by weight alkylaryl polyglycol ethers For the preparation of a suitable active substance preparation, 1 part by weight of active substance is mixed with the stated quantities of solvent and emulsifier and the concentrate is diluted to the desired concentration with water. For the testing for protective activity, young cucumber plants are sprayed with the active substance preparation at the stated application dosage. One day after the treatment, the plants are inoculated with a spore suspension of Sphaerotheca fuliginea. Next, the plants are placed in a greenhouse at 70% relative atmospheric humidity and a temperature of 23° C. 7 days after the inoculation, the assessment takes place.

Where [1] appears, read: Fusarium proliferatum growth, OD 620, 5 days, read-out: % Inhibition des Pilzwachstums bei 50 μM.
Setting [2] is: Fusarium proliferatum, 5 days at 20° C., HPLC-MS/MS, read-out: % Inhibition der FB1 produktion bei 50 μM.
[3] abbreviates: LogPA (logP of the stated pure compound or, in a mixture, of the main isomer, 1-substituted 3-aryl-1H-pyrazole).
The mark [4] stands for this setting: 72 h, read-out: % Inhibition des Pilzwachstums bei 50 μM.
Setting [5] is: 168 h, read-out: % Inhibition der DON/AcDON produktion bei 50 μM.

Where two headings read alike, the source gives them in different places.

As a reminder, the chromatographic logP is a lipophilicity value derived from retention on a column. Consider `COCC(=O)Nc1cc(-c2c(-c3ccc(Cl)cc3F)nn(C)c2SC)ccn1` [Compound 200], for which the pest or weed control at 500 ppm in the series on Alternaria solani was found to be 93%. The compound further came in with a chromatographic logP in “physchem” (LogPA) of 3. For the same compound, the inhibition at 50 µM with Fusarium proliferatum (setting [1]) came to 1%; in the series on Fusarium proliferatum (setting [2]), 99%.

With `N#Cc1cccc(-c2c(-c3ccncc3)cnn2C2CCCCO2)c1` (stereo not drawn) [Compound 60, 3-[4-(pyridin-4-yl)-1-(tetrahydro-2H-pyran-2-yl)-1H-pyrazol-5-yl]benzonitrile], the chromatographic logP in “physchem” (setting [3]) worked out at 1.23. Moreover, the values for the inhibition at 50 µM with Fusarium proliferatum (setting [1]) and with Fusarium proliferatum (setting [2]) were 92% and 100%, respectively.

With `Fc1ccc(-c2nn(C3CCCCO3)cc2-c2ncnc3[nH]ccc23)cc1` (stereo not drawn) [Compound 66], the chromatographic logP in “physchem” (setting [3]) came to 1.69. The inhibition at 50 µM in the series with Fusarium proliferatum (setting [1]) came out at 40%; with Fusarium proliferatum (setting [2]), 85%.

For `Fc1ccc(-c2nn(C3CCCCO3)cc2-c2ccnc3[nH]ccc23)cc1` (stereo not drawn) [Compound 20], the chromatographic logP in the series “physchem” (setting [3]) was found to be 2.08. Besides, the inhibition at 50 µM in the series on Fusarium graminearum (setting [4]) was determined as 21%; in the series with Fusarium graminearum (setting [5]), 87%; with Fusarium proliferatum (setting [1]), 65%; in the series with Fusarium proliferatum (setting [2]), 100%.

On to `CCC(=O)Nc1cc(-c2c(-c3ccc(F)cc3O)nn(C)c2OC(F)F)ccn1` [Compound 196], for which, in the series on Alternaria solani, the pest or weed control at 500 ppm was 100%. In addition, the chromatographic logP in “physchem” (LogPA) is 2.12. Moreover, the inhibition at 50 µM in the series with Fusarium proliferatum (setting [1]) is 25%; in the series with Fusarium proliferatum (setting [2]), 100%.

`Clc1ccc(-c2c(-c3ccncc3)cnn2C2CCCCO2)cc1` (stereo not drawn) [Compound 70, 4-[5-(4-chlorophenyl)-1-(tetrahydro-2H-pyran-2-yl)-1H-pyrazol-4-yl]pyridine]: in the series “physchem” (setting [3]), the chromatographic logP was 1.52. Also, the results for the inhibition at 50 µM in the series with Fusarium proliferatum (setting [1]) and in the series with Fusarium proliferatum (setting [2]) were 0% and 92%, respectively.

Turning to `CCC(=O)Nc1cc(-c2cn(C3CCN(C(=O)OC(C)(C)C)CC3)nc2-c2ccc(F)cc2)ccn1` [Compound 193], the pest or weed control at 500 ppm with Alternaria solani worked out at 93%. The chromatographic logP in “physchem” (LogPA) amounted to 3.03. Also, the inhibition at 50 µM came out at 0% with Fusarium proliferatum (setting [1]) and 85% with Fusarium proliferatum (setting [2]).

Turning to `CC(C)Cn1cc(-c2ccnc(NC(=O)Cc3ccccc3)c2)c(-c2ccc(F)cc2)n1` [Compound 191], in the series “physchem” (LogPA), the chromatographic logP worked out at 3.54. Moreover, the inhibition at 50 µM in the series on Fusarium proliferatum (setting [1]) amounted to 1%; in the series on Fusarium proliferatum (setting [2]), 96%.

Consider `CC(C)(C)n1cc(-c2ccncc2)c(-c2ccc(F)cc2)n1` [Compound 58], for which the chromatographic logP in the series “physchem” (setting [3]) amounted to 2.62. Also, the inhibition at 50 µM amounted to 42% in the series on Fusarium proliferatum (setting [1]) and 89% in the series with Fusarium proliferatum (setting [2]).

Turning to `FC(F)(F)c1cccc(-c2nn(C3CCCCO3)cc2-c2ccnc3[nH]ccc23)c1` (stereo not drawn) [Compound 50], in “physchem” (setting [3]), the chromatographic logP came to 2.93. For the same compound, the results for the inhibition at 50 µM in the series on Fusarium proliferatum (setting [1]) and with Fusarium proliferatum (setting [2]) were 8% and 89%, respectively.

Consider `Fc1ccc(-c2nn(C3CCCCO3)cc2-c2ccnc3ccccc23)cc1` (stereo not drawn) [Compound 54], for which the chromatographic logP in the series “physchem” (setting [3]) came to 2.46. For the same compound, the inhibition at 50 µM with Fusarium graminearum (setting [4]) stood at 31%; in the series on Fusarium graminearum (setting [5]) it was 85%; with Fusarium proliferatum (setting [1]) it was 47%; with Fusarium proliferatum (setting [2]), 100%.

`c1ccc(Oc2ccc(-c3c(-c4ccncc4)cnn3C3CCCCO3)cc2)cc1` (stereo not drawn) [Compound 59, 4-[5-(4-phenoxyphenyl)-1-(tetrahydro-2H-pyran-2-yl)-1H-pyrazol-4-yl]pyridine]: in the series “physchem” (setting [3]), the chromatographic logP is 1.88. In addition, the inhibition at 50 µM with Fusarium proliferatum (setting [1]) was 0%; with Fusarium proliferatum (setting [2]), 95%.

With `Cn1nc(-c2ccc(F)cc2O)c(-c2ccnc(NC(=O)C3CC3)c2)c1OC(F)F` [Compound 258], the pest or weed control at 500 ppm in the series with Alternaria solani was 95%; with Sphaerotheca fuliginea, 80%. Besides, the chromatographic logP in the series “physchem” (LogPA) was determined as 2.22. Also, the inhibition at 50 µM with Fusarium graminearum (setting [4]) was 79%; in the series with Fusarium graminearum (setting [5]), 98%.
